Experimental findings from ChEMBL document CHEMBL5291721, “A preclinical secondary pharmacology resource illuminates target-adverse drug reaction associations of marketed drugs” (Nat Commun, 2023) are described below.

The target of test [1] is T1, Amine oxidase [flavin-containing] A (Homo sapiens, UniProt P21397).
T1 sequence (P21397 whole entry): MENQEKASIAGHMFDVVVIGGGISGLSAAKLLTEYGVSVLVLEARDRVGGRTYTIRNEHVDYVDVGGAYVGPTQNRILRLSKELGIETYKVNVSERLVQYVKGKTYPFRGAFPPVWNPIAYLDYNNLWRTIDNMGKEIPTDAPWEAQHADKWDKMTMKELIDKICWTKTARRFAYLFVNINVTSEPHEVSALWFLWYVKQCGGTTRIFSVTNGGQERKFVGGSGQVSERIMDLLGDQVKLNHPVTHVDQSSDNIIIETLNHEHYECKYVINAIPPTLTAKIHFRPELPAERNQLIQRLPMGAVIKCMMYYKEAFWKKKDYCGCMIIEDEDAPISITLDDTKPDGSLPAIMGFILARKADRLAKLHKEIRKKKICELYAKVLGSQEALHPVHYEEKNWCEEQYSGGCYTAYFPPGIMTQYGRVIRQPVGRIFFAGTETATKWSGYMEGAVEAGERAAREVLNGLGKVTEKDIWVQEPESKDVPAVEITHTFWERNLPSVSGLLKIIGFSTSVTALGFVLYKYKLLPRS
Format: functional.

In test [2] the target is cGMP-inhibited 3',5'-cyclic phosphodiesterase 3A (Homo sapiens, UniProt Q14432). Format: functional.
cGMP-inhibited 3',5'-cyclic phosphodiesterase 3A, sequence (Q14432 whole entry): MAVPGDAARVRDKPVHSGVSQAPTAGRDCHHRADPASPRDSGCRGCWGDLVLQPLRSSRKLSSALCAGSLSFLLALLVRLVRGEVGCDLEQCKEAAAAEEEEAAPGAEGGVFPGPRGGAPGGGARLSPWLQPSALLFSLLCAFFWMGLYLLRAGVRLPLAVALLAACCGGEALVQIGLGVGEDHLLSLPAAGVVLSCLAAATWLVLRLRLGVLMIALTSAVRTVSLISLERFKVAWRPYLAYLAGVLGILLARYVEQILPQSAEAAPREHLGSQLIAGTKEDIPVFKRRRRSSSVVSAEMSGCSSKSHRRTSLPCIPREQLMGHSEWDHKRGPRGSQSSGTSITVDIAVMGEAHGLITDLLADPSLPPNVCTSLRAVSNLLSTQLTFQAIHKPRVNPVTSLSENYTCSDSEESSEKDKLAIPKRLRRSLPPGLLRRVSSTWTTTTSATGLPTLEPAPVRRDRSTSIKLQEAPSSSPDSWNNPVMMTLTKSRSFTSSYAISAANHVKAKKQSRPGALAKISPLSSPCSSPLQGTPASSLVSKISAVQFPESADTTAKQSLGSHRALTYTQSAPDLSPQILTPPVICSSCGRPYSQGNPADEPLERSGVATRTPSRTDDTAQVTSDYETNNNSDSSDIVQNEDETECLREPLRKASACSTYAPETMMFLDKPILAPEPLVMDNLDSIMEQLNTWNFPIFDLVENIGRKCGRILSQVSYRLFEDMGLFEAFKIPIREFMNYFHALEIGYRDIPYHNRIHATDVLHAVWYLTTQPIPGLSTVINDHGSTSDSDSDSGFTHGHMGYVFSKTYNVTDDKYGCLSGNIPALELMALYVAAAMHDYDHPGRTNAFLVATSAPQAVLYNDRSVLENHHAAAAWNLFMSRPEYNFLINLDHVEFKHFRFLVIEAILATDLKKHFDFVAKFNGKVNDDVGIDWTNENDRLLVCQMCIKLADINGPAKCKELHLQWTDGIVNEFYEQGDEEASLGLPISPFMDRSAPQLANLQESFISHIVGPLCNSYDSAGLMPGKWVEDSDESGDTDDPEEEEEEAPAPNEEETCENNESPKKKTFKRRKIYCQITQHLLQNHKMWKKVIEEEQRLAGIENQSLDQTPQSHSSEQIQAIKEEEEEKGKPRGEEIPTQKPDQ
Test [3] deals with T2, Alpha-2A adrenergic receptor (Homo sapiens, UniProt P08913).
T2 sequence (P08913 whole entry): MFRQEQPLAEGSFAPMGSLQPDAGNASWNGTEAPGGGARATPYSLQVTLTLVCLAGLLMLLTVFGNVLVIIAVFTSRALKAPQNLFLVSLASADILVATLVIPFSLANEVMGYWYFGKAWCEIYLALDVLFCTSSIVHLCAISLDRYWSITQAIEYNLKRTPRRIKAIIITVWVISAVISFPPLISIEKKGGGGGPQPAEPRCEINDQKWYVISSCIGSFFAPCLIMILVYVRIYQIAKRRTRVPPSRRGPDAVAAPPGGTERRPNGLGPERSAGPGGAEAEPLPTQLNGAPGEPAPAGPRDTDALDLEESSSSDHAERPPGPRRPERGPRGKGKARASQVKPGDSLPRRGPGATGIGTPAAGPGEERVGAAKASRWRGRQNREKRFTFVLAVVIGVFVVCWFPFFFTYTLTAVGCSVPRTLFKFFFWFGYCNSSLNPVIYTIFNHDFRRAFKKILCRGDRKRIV
Format: functional, cell-based.

Test [4] deals with T3, Muscarinic acetylcholine receptor M2 (Homo sapiens, UniProt P08172).
T3 sequence (P08172 whole entry): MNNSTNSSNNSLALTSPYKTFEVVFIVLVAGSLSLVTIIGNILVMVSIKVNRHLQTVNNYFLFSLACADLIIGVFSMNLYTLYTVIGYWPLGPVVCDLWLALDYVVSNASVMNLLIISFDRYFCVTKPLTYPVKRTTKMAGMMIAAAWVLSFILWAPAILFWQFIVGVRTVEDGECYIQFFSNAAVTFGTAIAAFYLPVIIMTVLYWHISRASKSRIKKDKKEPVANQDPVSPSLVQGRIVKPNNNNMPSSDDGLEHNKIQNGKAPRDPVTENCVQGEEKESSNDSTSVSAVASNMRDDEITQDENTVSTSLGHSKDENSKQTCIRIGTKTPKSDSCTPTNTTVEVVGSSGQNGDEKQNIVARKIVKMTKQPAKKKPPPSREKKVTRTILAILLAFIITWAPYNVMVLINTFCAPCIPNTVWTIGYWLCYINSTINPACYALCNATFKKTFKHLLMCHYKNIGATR
Format: functional, cell-based.

In test [5] the target is Delta-type opioid receptor (Homo sapiens, UniProt P41143).
Delta-type opioid receptor, sequence (P41143 whole entry): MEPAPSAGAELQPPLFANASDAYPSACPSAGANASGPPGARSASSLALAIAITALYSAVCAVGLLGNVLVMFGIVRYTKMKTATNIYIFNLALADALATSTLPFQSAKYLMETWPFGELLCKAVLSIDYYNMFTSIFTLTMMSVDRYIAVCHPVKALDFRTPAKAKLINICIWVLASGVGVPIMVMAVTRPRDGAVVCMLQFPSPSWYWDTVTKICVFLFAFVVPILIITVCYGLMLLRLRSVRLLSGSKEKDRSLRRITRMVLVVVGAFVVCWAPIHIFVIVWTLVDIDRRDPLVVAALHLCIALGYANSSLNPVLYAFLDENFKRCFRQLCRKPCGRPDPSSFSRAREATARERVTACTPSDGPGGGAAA
The target of the next test is Motilin receptor (Homo sapiens, UniProt O43193).
Motilin receptor, sequence (O43193 whole entry): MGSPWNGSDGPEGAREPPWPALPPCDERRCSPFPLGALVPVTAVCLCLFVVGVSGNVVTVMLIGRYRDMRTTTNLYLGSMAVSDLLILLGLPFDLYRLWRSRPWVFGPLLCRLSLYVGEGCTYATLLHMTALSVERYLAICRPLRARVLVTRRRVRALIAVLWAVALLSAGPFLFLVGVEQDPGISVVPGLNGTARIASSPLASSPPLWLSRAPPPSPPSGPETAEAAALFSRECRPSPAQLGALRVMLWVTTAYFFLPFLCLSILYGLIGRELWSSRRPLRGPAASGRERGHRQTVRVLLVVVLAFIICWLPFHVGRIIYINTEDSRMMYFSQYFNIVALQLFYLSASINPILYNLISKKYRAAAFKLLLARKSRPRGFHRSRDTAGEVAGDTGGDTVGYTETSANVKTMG
Test [6] addresses T3, Muscarinic acetylcholine receptor M2. Format: functional, cell-based. The source holds these as a separate data set.
Another test concerns the target T4, Estrogen receptor (Homo sapiens, UniProt P03372).
T4 sequence (P03372 whole entry): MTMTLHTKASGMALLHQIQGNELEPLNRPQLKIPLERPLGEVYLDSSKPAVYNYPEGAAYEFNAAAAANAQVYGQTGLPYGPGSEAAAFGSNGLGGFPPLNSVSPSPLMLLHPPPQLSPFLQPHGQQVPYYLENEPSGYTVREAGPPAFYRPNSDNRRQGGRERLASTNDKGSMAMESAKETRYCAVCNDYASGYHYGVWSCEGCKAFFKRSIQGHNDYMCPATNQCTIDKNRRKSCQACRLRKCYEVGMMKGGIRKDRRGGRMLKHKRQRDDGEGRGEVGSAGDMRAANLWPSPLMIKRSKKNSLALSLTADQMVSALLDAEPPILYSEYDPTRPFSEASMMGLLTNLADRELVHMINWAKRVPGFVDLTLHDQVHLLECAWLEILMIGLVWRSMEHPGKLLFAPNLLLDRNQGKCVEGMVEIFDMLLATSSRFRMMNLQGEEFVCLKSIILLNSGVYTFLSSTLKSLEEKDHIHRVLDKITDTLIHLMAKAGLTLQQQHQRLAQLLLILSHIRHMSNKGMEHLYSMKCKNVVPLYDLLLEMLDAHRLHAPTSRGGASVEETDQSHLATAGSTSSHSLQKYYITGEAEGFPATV

A further test has as its target D(3) dopamine receptor (Homo sapiens, UniProt P35462).
In test [7] the target is Sodium-dependent dopamine transporter (Homo sapiens, UniProt Q01959).
Sodium-dependent dopamine transporter, sequence (Q01959 whole entry): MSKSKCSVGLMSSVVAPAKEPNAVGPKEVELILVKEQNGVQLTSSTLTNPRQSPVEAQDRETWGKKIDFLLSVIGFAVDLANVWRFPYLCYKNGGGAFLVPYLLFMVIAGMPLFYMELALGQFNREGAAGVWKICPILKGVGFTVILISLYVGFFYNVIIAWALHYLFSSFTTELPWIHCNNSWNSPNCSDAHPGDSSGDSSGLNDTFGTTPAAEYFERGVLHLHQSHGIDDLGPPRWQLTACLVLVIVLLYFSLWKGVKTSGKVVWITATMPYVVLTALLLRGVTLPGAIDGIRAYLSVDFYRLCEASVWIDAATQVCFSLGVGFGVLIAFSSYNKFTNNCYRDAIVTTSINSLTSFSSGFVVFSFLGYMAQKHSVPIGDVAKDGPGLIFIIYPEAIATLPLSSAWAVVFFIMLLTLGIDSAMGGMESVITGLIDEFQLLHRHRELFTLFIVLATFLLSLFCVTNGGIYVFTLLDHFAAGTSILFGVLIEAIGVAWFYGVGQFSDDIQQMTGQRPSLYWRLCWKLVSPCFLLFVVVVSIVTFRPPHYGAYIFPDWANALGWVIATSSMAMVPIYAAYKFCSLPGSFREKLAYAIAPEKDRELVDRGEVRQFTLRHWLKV
Test [8] addresses T5, Equilibrative nucleoside transporter 1 (Homo sapiens, UniProt Q99808).
T5 sequence (Q99808 whole entry): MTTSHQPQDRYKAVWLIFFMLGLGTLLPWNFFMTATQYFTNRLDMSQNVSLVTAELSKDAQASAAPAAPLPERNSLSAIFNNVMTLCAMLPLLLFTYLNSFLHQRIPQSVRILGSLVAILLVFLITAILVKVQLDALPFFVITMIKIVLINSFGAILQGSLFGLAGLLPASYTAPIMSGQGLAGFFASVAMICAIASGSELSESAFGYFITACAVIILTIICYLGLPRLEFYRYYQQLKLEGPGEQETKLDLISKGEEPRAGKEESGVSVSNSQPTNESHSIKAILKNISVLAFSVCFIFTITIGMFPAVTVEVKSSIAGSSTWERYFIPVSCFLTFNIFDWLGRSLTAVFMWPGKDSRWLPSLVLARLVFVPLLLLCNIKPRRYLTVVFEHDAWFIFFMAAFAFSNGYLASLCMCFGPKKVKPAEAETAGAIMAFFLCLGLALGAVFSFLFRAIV

As a reminder, the AC50 is the concentration giving half of the maximal activity seen. Low values mean greater potency, high ones weaker potency.
Note: assay procedure not described here.

D(3) dopamine receptor, sequence (P35462 whole entry): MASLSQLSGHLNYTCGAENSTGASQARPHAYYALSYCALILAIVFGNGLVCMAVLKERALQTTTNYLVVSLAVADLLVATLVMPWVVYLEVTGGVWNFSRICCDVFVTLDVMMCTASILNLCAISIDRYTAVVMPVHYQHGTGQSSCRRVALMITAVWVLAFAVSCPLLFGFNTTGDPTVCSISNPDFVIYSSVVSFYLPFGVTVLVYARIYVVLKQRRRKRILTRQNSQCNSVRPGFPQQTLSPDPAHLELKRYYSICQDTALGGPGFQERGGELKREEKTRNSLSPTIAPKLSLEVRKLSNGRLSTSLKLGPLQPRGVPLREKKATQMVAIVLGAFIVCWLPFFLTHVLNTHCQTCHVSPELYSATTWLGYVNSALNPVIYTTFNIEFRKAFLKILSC

Regarding `CCCC(C)C1(CC)C(=O)NC(=O)NC1=O` (stereo unspecified) [PENTOBARBITAL], the AC50 in [1] is over 30 µM; in test [2], over 30 µM; in [3] it was over 10 µM; in [4] it was over 10 µM; in [5], 19 µM; at Motilin receptor it was over 10 µM. For the same compound, the half-maximal activity concentration (AC50) is over 10 µM in [6]; over 10 µM at Estrogen receptor; over 30 µM at D(3) dopamine receptor; over 10 µM in [7]; over 10 µM in [8].
`O=C(O)C[C@H](O)C[C@H](O)/C=C/c1c(C2CC2)nc2ccccc2c1-c1ccc(F)cc1` [PITAVASTATIN]: the half-maximal activity concentration (AC50) in test [1] was over 30 µM; in [2], over 30 µM; in test [3], over 10 µM; in test [4] it was over 30 µM; in [5] it was over 30 µM; on Motilin receptor, over 10 µM. Also, the AC50 in [6] was over 30 µM; at Estrogen receptor it was over 10 µM; at D(3) dopamine receptor, over 30 µM; in test [7] it was over 30 µM; in [8], over 10 µM.
For `CN1CCC(=C2c3ccccc3CCc3sccc32)CC1` [PIZOTYLINE], the AC50 is over 10 µM in test [1]; over 30 µM in [2]; over 30 µM in test [3]; 0.123 µM in [4]; over 30 µM in [5]; over 10 µM at Motilin receptor. Besides, the half-maximal activity concentration (AC50) was over 30 µM in test [6]; over 30 µM at Estrogen receptor; 4.3 µM at D(3) dopamine receptor; 13.4 µM in [7]; over 30 µM in [8].
For `COC(=O)[C@H]1[C@H]2C[C@@H]3c4[nH]c5cc(OC)ccc5c4CCN3C[C@H]2C[C@@H](OC(=O)/C=C/c2cc(OC)c(OC)c(OC)c2)[C@@H]1OC` [RESCINNAMINE], the concentration at half-maximal activity (AC50) in test [1] was over 10 µM; in test [2], over 30 µM; in test [3], over 10 µM; in test [4] it was over 10 µM; in test [5] it was over 30 µM; at Motilin receptor it was over 10 µM. Also, the half-maximal activity concentration (AC50) is over 10 µM in test [6]; over 10 µM on Estrogen receptor; over 30 µM on D(3) dopamine receptor; 18.9 µM in test [7]; over 30 µM in test [8].
Turning to `C=CCC1(C(C)CC)C(=O)NC(=O)NC1=O` (stereo unspecified) [TALBUTAL], the AC50 in test [1] was over 10 µM; in test [2], over 30 µM; in test [3], over 10 µM; in test [4] it was over 10 µM; in [5] it was over 30 µM; at Motilin receptor, over 10 µM. For the same compound, the AC50 is over 10 µM in [6]; over 10 µM on Estrogen receptor; over 30 µM on D(3) dopamine receptor; over 10 µM in [7]; over 10 µM in test [8].
Consider `CN1C(=O)C(O)N=C(c2ccccc2)c2cc(Cl)ccc21` (stereo unspecified) [TEMAZEPAM], for which the AC50 was over 10 µM in [1]; 3 µM in test [2]; over 10 µM in test [3]; over 10 µM in [4]; over 30 µM in test [5]; over 10 µM on Motilin receptor. The AC50 is over 10 µM in test [6]; over 30 µM on Estrogen receptor; over 10 µM on D(3) dopamine receptor; over 10 µM in [7]; over 30 µM in [8].
`CC(CC(c1ccccc1)c1ccccc1)NC(C)(C)C` (stereo unspecified) [TERODILINE]: the AC50 in [1] was over 30 µM; in test [2], over 30 µM; in [3], over 30 µM; in test [4] it was 3.1 µM; in test [5], over 30 µM; on Motilin receptor it was over 30 µM. Also, the AC50 in [6] is over 30 µM; at Estrogen receptor, over 30 µM; on D(3) dopamine receptor it was over 30 µM; in test [7], 20 µM; in test [8], over 30 µM.
With `CN1CCN(CC/C=C2/c3ccccc3Sc3ccc(S(=O)(=O)N(C)C)cc32)CC1` [THIOTHIXENE], the AC50 was over 10 µM in [1]; 11 µM in [2]; over 10 µM in test [3]; over 10 µM in test [4]; over 10 µM in test [5]; over 10 µM on Motilin receptor. For the same compound, the half-maximal activity concentration (AC50) in [6] is over 10 µM; on Estrogen receptor, over 30 µM; at D(3) dopamine receptor it was 0.0139 µM; in test [7], 6.26 µM; in [8] it was over 30 µM.
Take `CN1C(=O)OC(C)(C)C1=O` [TRIMETHADIONE]: the concentration at half-maximal activity (AC50) in test [1] was over 10 µM; in test [2] it was over 30 µM; in [3], over 10 µM; in test [4], over 10 µM; in [5], over 30 µM; on Motilin receptor, over 10 µM. The AC50 in test [6] was over 10 µM; on Estrogen receptor, over 10 µM; on D(3) dopamine receptor, over 30 µM; in [7] it was over 10 µM; in [8] it was over 10 µM.
In the case of `CC(=O)O[C@H]1C[C@@H]2CC[C@@H]3[C@H](CC[C@@]4(C)[C@H]3C[C@H]([N+]3(C)CCCCC3)[C@@H]4OC(C)=O)[C@@]2(C)C[C@@H]1N1CCCCC1` [VECURONIUM], the AC50 (in test [1]; in test [2]; in test [3]; in test [4]; in test [5]; at Motilin receptor) was over 30 µM throughout. In addition, the half-maximal activity concentration (AC50) (in [6]; at Estrogen receptor; on D(3) dopamine receptor; in test [7]; in test [8]) was over 30 µM throughout.
For the compound `C=CCN1CCCC1CNC(=O)c1cc(S(N)(=O)=O)cc(OC)c1OC` (stereo unspecified) [VERALIPRIDE], the concentration at half-maximal activity (AC50) is over 30 µM in [1]; over 10 µM in [2]; over 30 µM in test [3]; over 30 µM in test [4]; over 30 µM in test [5]; over 30 µM at Motilin receptor. Moreover, the AC50 in [6] was over 30 µM; on Estrogen receptor, over 30 µM; at D(3) dopamine receptor it was 0.003 µM; in test [7] it was over 30 µM; in test [8], over 30 µM.
